Data reported in PubChem BioAssay (NCI).
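Growth conditions: 96-well plates. Treatment: test compound, 48 hours, 5 concentrations. Analysis: linear interpolation between bracketing concentrations; unreached endpoints set to highest concentration. The concentration for full growth arrest is given as TGI.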

Legend:
Experiment in all cases: NCI-60 cell line screen, 48 h
[1] = test system: CAKI-1 renal
[2] = test system: CCRF-CEM leukemia
[3] = test system: DU-145 prostate
[4] = test system: HCC-2998 colon
[5] = test system: HCT-116 colon
[6] = test system: HL-60(TB) leukemia
[7] = test system: MCF7 breast
[8] = test system: MDA-MB-231 breast
[9] = test system: MDA-MB-435
[10] = test system: NCI-H522 lung
[11] = test system: OVCAR-3 ovarian
[12] = test system: PC-3 prostate
[13] = test system: SF-295 CNS
[14] = test system: SK-MEL-28 melanoma
[15] = test system: SK-MEL-5 melanoma
[16] = test system: SN12C renal
[17] = test system: SW-620 colon
[18] = test system: T-47D breast
[19] = test system: TK-10 renal
[20] = test system: SK-MEL-2 melanoma

Row | Compound | TGI [1] [µM] | TGI [2] [µM] | TGI [3] [µM] | TGI [4] [µM] | TGI [5] [µM] | TGI [6] [µM] | TGI [7] [µM] | TGI [8] [µM] | TGI [9] [µM] | TGI [10] [µM] | TGI [11] [µM] | TGI [12] [µM] | TGI [13] [µM] | TGI [14] [µM] | TGI [15] [µM] | TGI [16] [µM] | TGI [17] [µM] | TGI [18] [µM] | TGI [19] [µM] | TGI [20] [µM]
1 | CC1(C)CC2(C)CC1CC2NC(=O)CCN1CCOCC1 (stereo not given) | > 100 | > 100 | > 100 | > 100 | > 100 | > 100 | > 100 | > 100 | > 100 | > 100 | > 100 | > 100 | > 100 | > 100 | > 100 | > 100 | > 100 | > 100 | > 100 | 
2 | COC(=O)c1cc(C(=CCC[C@H]2CC[C@@]3(C)C(CCC4C3CC[C@@]3(C)C4CC[C@@H]3C(C)CCCC(C)C)C2)c2cc(Cl)c(OC(=O)c3ccccc3)c(C(=O)OC)c2)cc(Cl)c1OC(=O)c1ccccc1 (stereo not given in full) | > 10 | > 10 | > 10 | > 10 | > 10 | > 10 | > 10 | > 10 | > 10 | > 10 | > 10 | > 10 | > 10 | > 10 | > 10 | > 10 | > 10 | > 10 | > 10 | > 10
3 | CC(=O)O[C@H]1[C@@H](OC(C)=O)C(C)(C)/C=C/[C@H](C)C(=O)[C@@]2(OC(C)=O)C[C@@](C)(OC(C)=O)[C@H](OC(C)=O)[C@@H]2[C@H]2OC(=O)CC[C@@]2(OC(=O)c2ccccc2)[C@@H]1OCC(C)C | > 100 | > 100 | > 100 | > 100 | 65.2 | > 100 | > 100 | > 100 | > 100 | > 100 | > 100 | > 100 | > 100 |  | > 100 | > 100 | > 100 | > 100 | > 100 | > 100
4 | NC(=O)CC(N=C1C(=O)OC(C(O)CO)C1=NC(CC(N)=O)C(=O)O)C(=O)O (stereo not given) | > 100 | > 100 | > 100 | > 100 | > 100 | > 100 | > 100 | > 100 | > 100 | > 100 |  | > 100 | > 100 | > 100 | > 100 | > 100 | > 100 | > 100 | > 100 | > 100
5 | CC[C@@]12C=CC(=S)N(CCSc3ccccc3)[C@@H]1c1c(n(S(=O)(=O)c3ccc(OC)cc3)c3ccccc13)CC2 | > 100 | > 100 | > 100 | > 100 | > 100 | > 100 | > 100 | > 100 | > 100 | > 100 | > 100 | > 100 | > 100 | > 100 | > 100 | > 100 | > 100 | > 100 | > 100 | > 100
6 | CC(NC(=O)C(N)CC(=O)O)NC(=O)N(C)C(C)(C)C (stereo not given) | > 100 | > 100 | > 100 | > 100 | > 100 | > 100 | > 100 | > 100 | > 100 | > 100 | > 100 | > 100 | > 100 | > 100 | > 100 | > 100 | > 100 | > 100 | > 100 | > 100
7 | C=C(C)[C@@H]1CCC2=C[C@H](CC(C)=CC3=CC(C)=C(O3)[C@@H]1OC)OC2=O | > 100 | > 100 | > 100 | > 100 |  | > 100 | > 100 | 87.3 | > 100 | > 100 | > 100 | > 100 | 70.5 | > 100 | > 100 | > 100 | > 100 | > 100 | > 100 | 52.7
8 | N#Cc1ccc(Oc2nc3ccc(C(F)(F)F)cc3nc2-c2ccccc2)cc1 | 44.3 | 44.7 | 34 | 32.3 | 28.6 | 46.3 | 44.1 | 36.8 | 33.8 | 32.2 | 44.8 | 27 | 58.2 | 30.2 | 46.5 | 40.9 | 35.7 | 38.5 | 33.6 | 36.9
9 | CCOc1ccc2nc(NC(NC(=O)c3cccnc3)(C(F)(F)F)C(F)(F)F)sc2c1 | > 100 | 67.9 | > 100 | 84.3 | > 100 | 94.8 | 91.4 | > 100 | 65.4 | 84.2 | > 100 | 78.6 | > 100 | > 100 | 49.2 | > 100 | > 100 | 58.4 | > 100 | > 100
10 | Cc1ccc(C(=O)Nc2ccc(S(=O)(=O)O)c3cc(S(=O)(=O)O)cc(S(=O)(=O)O)c23)cc1NC(=O)c1cccc(NC(=O)Nc2cccc(C(=O)Nc3cc(C(=O)Nc4ccc(S(=O)(=O)O)c5cc(S(=O)(=O)O)cc(S(=O)(=O)O)c45)ccc3C)c2)c1 (tested in a mixture with another compound) | > 50 | > 50 | > 50 | > 50 | > 50 | > 50 | > 50 | > 50 | > 50 | > 50 | > 50 | > 50 | > 50 | > 50 | > 50 | > 50 | > 50 | > 50 |  | > 50
11 | COc1ccc(Oc2nc(C#CC(C)(C)O)nc(Oc3ccc(OC)cc3)n2)cc1 | 12.5 | 4.36 | 7.16 |  | > 100 | 3.52 | 3.15 | 9.93 | 17 | 9.36 | 4.58 | 7.69 | 31.2 | 18.9 | 27.8 | 28.1 | 3.47 | > 100 | 25.5 | 22.8
12 | Cc1ccc(S(=O)(=O)NC(=O)NC(Cc2ccc(O)c(O)c2)C(=O)O)cc1 (stereo not given) | > 100 | 63 | > 100 |  | > 100 | > 100 | > 100 | > 100 | > 100 | > 100 | > 100 | > 100 | > 100 | > 100 | > 100 | > 100 | 61.9 | > 100 | > 100 | > 100
13 | O=[N+]([O-])c1ccc(Cl)cc1N/N=C/c1cccc2cccnc12 | > 100 | > 100 | > 100 | > 100 | > 100 | > 100 | > 100 | > 100 | > 100 | > 100 | > 100 | > 100 | > 100 | > 100 | > 100 | > 100 | > 100 | > 100 | > 100 | 
14 | CSc1nc2c(=O)n(-c3ccccc3)c(=S)n(-c3ccccc3)c2s1 |  | > 100 | > 100 | > 100 | > 100 | > 100 | > 100 | > 100 | > 100 | > 100 | > 100 | > 100 | > 100 | > 100 | > 100 | > 100 | > 100 | > 100 | > 100 | > 100
15 | CC(NC(C#N)CC12CC3CC(CC(C3)C1)C2)c1ccccc1 (stereo not given) | > 100 | 59.4 | > 100 | > 100 | > 100 | 42.3 | > 100 | > 100 | > 100 | > 100 | 71.9 | > 100 | > 100 | > 100 | > 100 |  | > 100 | > 100 | > 100 | 
16 | Cc1nnc(-n2c(O)cc(=O)n(-c3ccccc3)c2=S)nc1/C=C/c1ccc(N(C)C)cc1 | > 57 | > 100 | > 90.1 | 22.7 | > 55.7 | 7.1 | > 40.9 | > 55.7 | 23.8 | 8.33 |  | > 46.2 | > 62.2 | > 50.6 | 21.9 | > 96.1 | > 52.9 | > 60.7 | > 56.5 | 41.8
17 | O=[N+]([O-])c1c2nc3n(c2cc2c1nc1n2CCC1)CCC3 | > 100 | > 100 | > 100 | > 100 | > 100 | > 100 | > 100 | > 100 | > 100 | > 100 | > 100 | > 100 | > 100 | > 100 | > 100 | > 100 | > 100 | > 100 | > 100 | 
18 | c1ccc2nc(CCC3CCCCN3)ccc2c1 (stereo not given) | > 100 | > 100 | > 100 | > 100 | > 100 | > 100 | > 100 | > 100 | > 100 | > 100 |  | > 100 | > 100 | > 100 | > 100 | > 100 | > 100 | > 100 | > 100 | > 100
19 | Cc1nc2ccccc2n1Cc1nnc(N)o1 |  | > 100 | > 100 | > 100 | > 100 | > 100 | > 100 | > 100 | 21.3 | > 100 | > 100 | > 100 | > 100 | > 100 | > 100 | > 100 | > 100 | > 100 | > 100 | > 100
20 | c1ccc2c(c1)CC1COc3ccccc3C1O2 (stereo not given) | > 100 | > 100 | > 100 | > 100 | > 100 | > 100 | > 100 | > 100 | > 100 | > 100 | > 100 | > 100 | > 100 |  | 37.9 | > 100 | > 100 | > 100 | > 100 | > 100
21 | C#CC(O)/C=C/C(O)CCCC(O)CC#CC(O)C#CC(O)CCCC(O)/C=C/CCCC(=O)CCCCCCCCCCCCCCCC(O)C(O)C#CC(=O)O (stereo not given) | > 50 | 36.3 | > 50 | > 50 | > 50 | 27.4 | > 50 | > 50 | > 50 | 17.5 |  | > 50 | > 50 | > 50 | > 50 | > 50 |  | > 50 | > 50 | > 50
22 | COC(=O)[C@H](Cc1ccccc1)NP(=O)(O)OCC1C=CC(n2cc(C)c(=O)[nH]c2=O)O1 (stereo not given in full) | > 100 | > 100 | > 100 | > 100 | > 100 | > 100 | > 100 | > 100 | > 100 | > 100 | > 100 | > 100 | > 100 |  | > 100 | > 100 | > 100 | > 100 | > 100 | > 100
23 | O=C(OCCC12CC3CC(CC(C3)C1)C2)c1ccc(NCc2cc(O)ccc2O)cc1 | 1.11 | 15.9 | 13.7 |  | 5.68 | 0.853 | > 100 | 5.31 | 3.84 | 0.35 | 0.626 | 14.5 | 5.25 | 2.24 | 2.51 | 11.2 | 6.56 | 0.584 | 4.65 | 2.83
